US12458630B2, “Combination therapy for cancer” (The Regents of the University of California, priority 2020, dated 2025)
Entries after “also recorded” stand apart in the source; their conditions may differ.

Experiments:
KC6141 cells [1] = experiment: NADPH/NADP measurement; type: cell-based, mouse; settings: 0.5 mM glucose, 24 hrs; for NADPH to NADP ratio: KC6141 cells on ECM
Description: Extracellular Matrix (ECM) Preparation. Skin fibroblasts were seeded on 6/12/96-well plates. One day after plating, cells were switched into DMEM (with pyruvate) with 10% dialysed FBS supplemented with or without 500 μM ^3H-proline and 100 μM Vitamin C. Cells were cultured for 6 days with media renewal every 24 h. After six days, skin fibroblasts were removed by washing in 1 ml or 500 μl or 100 μl per well PBS with 0.5% (v/v) Triton X-100 and 20 mM NH4OH. ECM was washed five times with PBS before plating KC6141 cells. The following day, KC6141 cells were switched into the indicated medium for 24 or 72 hrs. NADPH/NADP Measurement. NADPH and NADP measurement was performed using NADP/NADPH-Glo™ Assays (Promega #G9081) according to manufacturer's protocol. Briefly, KC6141 cells were grown on 96-well plates coated with ECM and treated as above. Then medium was removed and replaced with 50 μl of PBS and 50 μl of base solution with 1% DTAB. The plate was briefly mixed to ensure homogeneity and cell lysis. 50 μl of each sample was removed to an empty well for acid treatment. 25 μl per well of 0.4N HCl was added into these samples. All samples were incubated for 15 minutes at 60° C. and then equilibrated for 10 minutes at room temperature. 25 μl of 0.5M Trizma® base was added into each well of acid-treated cells to neutralize the acid. 50 μl of HCl/Trizma® solution was added to each well containing base-treated samples. Then 100 μl of NADP/NADPH-Glo™ Detection Reagent was added into each well and incubated for 30 minutes at room temperature. Luminescence was recorded using a luminometer.

MIA PaCa-2 cells = experiment: Cell viability assay (CCK-8); type: cell-based, human; settings: for cell viability in NHE1-silenced cells: NHE1 KD MIA PaCa-2 cells
Description: Cell viability assay. Cell viability was determined with Cell Counting Kit-8 assay (CCK-8 assay kit, Glpbio). Cells were plated in 96-well plates at a density of 3000 cells (MIA PaCa-2) or 1500 cells (KC6141) per well and incubated overnight prior to treatment. EIPA (10 μM), MRT68921 (600 nM) or erlotinib (2 μM, Sigma) were added to the wells for 72 and 96 hrs. Next, 10 μL of CCK-8 was added to each well. The optical density was read at 450 nm using a microplate reader (FilterMax F5, Molecular Devices, USA) at day 0, 1, 2, 3, and 4. For glutamine-deprivation assays, cells in 96-well plates were rinsed briefly in PBS and incubated in the 0.2 mM glutamine. Glutamine-free DMEM medium was supplemented with 0.2 mM glutamine in the presence of 10% dialysed FBS and 25 mM HEPES. For some conditions, the medium was supplemented with a final concentration of 2% BSA (Fraction V, fatty-acid-, nuclease and protease-free, Calbiochem). For all experiments, media were replaced every 24 hrs. Viable cell counts were obtained using CCK-8 assay described as above.
In some embodiments, cells were plated in 96-well plates coated with or without ECM at a density of 3000 cells (MIA PaCa-2, 1444, 1305, COLO 357/FG) or 1500 cells (KC6141) per well and incubated overnight prior to treatment. EIPA (10.5 μM), IPI549 (600 nM), MBQ-167 (500 nM), MRT68921 (600 nM) or erlotinib (2 μM, Sigma), ML385 (10 μM, Sigma), HCQ (10 μM or 80 μM) or their combinations were added to the wells for 24, 72 or 96 hrs. Next, 10 μL of CCK-8 was added to each well. The optical density was read at 450 nm using a microplate reader (FilterMax F5, Molecular Devices, USA) at day 0, 1, 2, 3, and 4. For glutamine-deprivation assays, cells in 96-well plates were rinsed briefly in PBS and incubated in the 0.2 mM glutamine. Glutamine-free DMEM medium was supplemented with 0.2 mM glutamine in the presence of 10% dialyzed FBS and 25 mM HEPES. For glucose-deprivation assays, cells in 96-well plates were rinsed briefly in PBS and incubated in the 0.5 mM glucose. Glucose-free DMEM medium was supplemented with 0.5 mM glucose in the presence of 10% dialyzed FBS and 25 mM HEPES. For some conditions, the medium was supplemented with a final concentration of 2% BSA (Fraction V, fatty-acid-, nuclease and protease-free, Calbiochem). For all experiments, media were replaced every 24 hrs. Viable cell counts were obtained using CCK-8 assay described as above.

KC6141 cells [2] = experiment: Luminescence ATP detection assay; type: cell-based, mouse; settings: 0.5 mM glucose, 24 hrs; for cellular ATP: KC6141 cells on ECM, EIPA 10.5 μM, MBQ-167 500 nM, MRT68921 600 nM
Description: Extracellular Matrix (ECM) Preparation. Skin fibroblasts were seeded on 6/12/96-well plates. One day after plating, cells were switched into DMEM (with pyruvate) with 10% dialysed FBS supplemented with or without 500 μM ^3H-proline and 100 μM Vitamin C. Cells were cultured for 6 days with media renewal every 24 h. After six days, skin fibroblasts were removed by washing in 1 ml or 500 μl or 100 μl per well PBS with 0.5% (v/v) Triton X-100 and 20 mM NH4OH. ECM was washed five times with PBS before plating KC6141 cells. The following day, KC6141 cells were switched into the indicated medium for 24 or 72 hrs.
Luminescence ATP Detection Assay. Intracellular ATP level was determined with luminescence ATP detection assay system (PerkinElmer) according to manufacturer's protocol. Briefly, KC6141 cells were grown on 96-well plates coated with or without ECM in the presence of 100 μl 0.5 mM glucose medium with or without EIPA (10.5 μM), MBQ-167 (500 nM), MRT68921 (600 nM) or their combinations for 24 hrs. 50 μl mammalian cell lysis solution was added and shaken for 5 minutes. Next, 50 μl substrate solution was added and shaken for five minutes. Finally, plate was adapted in dark for 10 minutes and luminescence was measured.

Compound: CCN(c1nc(N)c(C(=O)N=C(N)N)nc1Cl)C(C)C [EIPA, 5-(N-ethyl-N-isopropyl) amiloride]
- NADPH to NADP ratio (KC6141 cells [1]): reduced
- NADPH to NADP ratio in NRF2 ablated cells (KC6141 cells [1]; Nrf2 KD KC6141 cells on ECM): ineffective
- sensitivity to single agent (cell viability) (MIA PaCa-2 cells; ATG7^Δ or IKKα-deficient MIA PaCa-2 cells, 3 days): very sensitive
- sensitivity of IKKα- or ATG7-deficient cells to EIPA (CCK-8) (MIA PaCa-2 cells; IKKα^Δ / ATG7^Δ vs WT MIA PaCa-2 cells (TP53 mutated), complete medium): much more sensitive; also recorded: highly sensitive
- cell viability in NHE1-silenced cells (MIA PaCa-2 cells; 3 days): EIPA-insensitive
- proliferation restored by albumin supplementation (MIA PaCa-2 cells; WT and IKKα KO MIA PaCa-2 cells, 0.2 mM glutamine with albumin, 3 days): completely abrogated
- cell viability (total viable cells relative to day 0) (MIA PaCa-2 cells; WT and IKKα^Δ MIA PaCa-2 cells, complete medium, EIPA 10.5 μM): suppression of cell viability
- enhanced proliferation caused by loss of IKKα or ATG7 (MIA PaCa-2 cells; WT, IKKα KO, ATG7 KO MIA PaCa-2 cells, complete medium, EIPA 10 μM, days 0-4): abrogated
- cellular ATP (KC6141 cells [2]): reduced
- cellular ATP in p62/NRF2 ablated cells (KC6141 cells [2]; p62 KD or Nrf2 KD KC6141 cells on ECM): ineffective

Compound: CN1CCc2cc(Nc3ncc(C4CC4)c(NCCCNC(=O)C4CCC4)n3)ccc2C1 [MRT68921]
- NADPH to NADP ratio (KC6141 cells [1]): further elevated
- cell viability in NHE1-silenced cells (MIA PaCa-2 cells; 3 days): severely compromised cell viability
- cellular ATP (KC6141 cells [2]): further elevated
